Positions of bridges follow the written chain, without caps; N, C: chain ends. Non-standard residues stand in square brackets, D forms with d. Residues, ends and D or L forms follow the SMILES beside them.
What was measured:
[1] = target: rat α9α10 nAChR (Rattus norvegicus, UniProt P43144+Q9JLB5); assay: cell-based; settings: for inhibition of ACh-evoked current amplitude: 0.1 µM; for inhibition at 0.1 µM: read-out: inhibition of ACh-evoked current amplitude
[2] = target: rat α4β2 nAChR (Rattus norvegicus, UniProt P09483+P12390); assay type: cell-based
[3] = target: rat α2β4 nAChR (Rattus norvegicus, UniProt P12389+P12392); assay type: cell-based
[4] = target: rat α3β2 nAChR (Rattus norvegicus, UniProt P04757+P12390); assay type: cell-based
[5] = target: rat α4β4 nAChR (Rattus norvegicus, UniProt P09483+P12392); assay type: cell-based
[6] = target: human α9α10 nAChR (Homo sapiens, UniProt Q9GZZ6+Q9UGM1); assay: cell-based; settings: for inhibition at 10 µM: read-out: inhibition of ACh-evoked currents
[7] = target: rat α6/α3β4 nAChR (Rattus norvegicus, UniProt P04757+P12392+P43143); assay type: cell-based
Chain of rat α6/α3β4 nAChR (P04757 whole entry, looked up): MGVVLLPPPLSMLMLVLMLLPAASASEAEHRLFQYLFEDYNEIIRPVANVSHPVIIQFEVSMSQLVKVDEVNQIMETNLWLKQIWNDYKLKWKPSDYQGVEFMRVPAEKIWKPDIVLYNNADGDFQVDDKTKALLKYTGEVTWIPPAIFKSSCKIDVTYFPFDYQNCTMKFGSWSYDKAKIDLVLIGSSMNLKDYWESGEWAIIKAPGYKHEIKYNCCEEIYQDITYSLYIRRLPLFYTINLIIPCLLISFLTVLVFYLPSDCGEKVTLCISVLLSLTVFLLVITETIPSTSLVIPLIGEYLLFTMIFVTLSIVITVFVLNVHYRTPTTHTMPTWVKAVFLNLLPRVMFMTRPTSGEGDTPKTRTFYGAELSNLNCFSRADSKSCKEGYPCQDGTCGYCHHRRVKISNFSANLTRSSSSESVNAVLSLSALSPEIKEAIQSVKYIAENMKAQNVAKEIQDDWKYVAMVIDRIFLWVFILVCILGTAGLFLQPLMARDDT
Chain of rat α6/α3β4 nAChR (P12392 whole entry, looked up): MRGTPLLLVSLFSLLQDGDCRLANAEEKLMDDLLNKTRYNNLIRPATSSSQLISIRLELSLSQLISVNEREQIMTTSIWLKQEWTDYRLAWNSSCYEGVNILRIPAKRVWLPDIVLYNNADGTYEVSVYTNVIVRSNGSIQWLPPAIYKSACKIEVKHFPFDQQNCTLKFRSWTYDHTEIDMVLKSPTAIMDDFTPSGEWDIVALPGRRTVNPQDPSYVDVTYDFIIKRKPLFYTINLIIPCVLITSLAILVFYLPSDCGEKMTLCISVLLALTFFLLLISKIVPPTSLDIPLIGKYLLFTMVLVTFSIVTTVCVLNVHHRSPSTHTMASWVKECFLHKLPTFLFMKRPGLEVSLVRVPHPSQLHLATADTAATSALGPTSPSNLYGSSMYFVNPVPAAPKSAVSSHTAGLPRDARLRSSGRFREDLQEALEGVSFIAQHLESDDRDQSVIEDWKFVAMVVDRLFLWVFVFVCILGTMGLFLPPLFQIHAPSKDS
Chain of rat α6/α3β4 nAChR (P43143 whole entry, looked up): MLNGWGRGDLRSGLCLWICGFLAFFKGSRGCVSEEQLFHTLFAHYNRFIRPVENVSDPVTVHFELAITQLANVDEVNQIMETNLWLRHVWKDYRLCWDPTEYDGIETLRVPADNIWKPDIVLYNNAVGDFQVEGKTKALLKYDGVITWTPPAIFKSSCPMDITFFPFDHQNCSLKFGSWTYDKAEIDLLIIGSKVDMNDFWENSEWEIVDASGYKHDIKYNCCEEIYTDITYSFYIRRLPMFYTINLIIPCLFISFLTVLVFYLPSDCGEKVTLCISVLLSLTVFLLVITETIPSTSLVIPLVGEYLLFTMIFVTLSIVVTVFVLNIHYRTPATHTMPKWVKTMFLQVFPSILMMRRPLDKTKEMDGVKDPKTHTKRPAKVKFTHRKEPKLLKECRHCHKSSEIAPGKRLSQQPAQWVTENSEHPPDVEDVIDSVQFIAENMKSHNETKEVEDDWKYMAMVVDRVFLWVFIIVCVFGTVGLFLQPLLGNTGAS

Chain of rat α9α10 nAChR (P43144 26-479 limits assumed): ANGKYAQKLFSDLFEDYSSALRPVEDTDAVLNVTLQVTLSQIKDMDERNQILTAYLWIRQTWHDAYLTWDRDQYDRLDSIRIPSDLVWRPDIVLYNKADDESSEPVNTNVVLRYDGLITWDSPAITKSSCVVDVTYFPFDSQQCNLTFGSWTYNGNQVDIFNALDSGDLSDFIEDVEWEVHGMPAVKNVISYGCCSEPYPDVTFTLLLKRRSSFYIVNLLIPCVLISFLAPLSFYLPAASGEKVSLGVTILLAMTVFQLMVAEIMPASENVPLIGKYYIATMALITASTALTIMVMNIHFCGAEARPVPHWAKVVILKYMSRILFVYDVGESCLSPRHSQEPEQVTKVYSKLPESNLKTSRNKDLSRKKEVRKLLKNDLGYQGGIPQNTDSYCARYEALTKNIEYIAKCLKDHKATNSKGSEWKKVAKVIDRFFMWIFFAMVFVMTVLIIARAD
Chain of rat α9α10 nAChR (Q9JLB5 25-447 limits assumed): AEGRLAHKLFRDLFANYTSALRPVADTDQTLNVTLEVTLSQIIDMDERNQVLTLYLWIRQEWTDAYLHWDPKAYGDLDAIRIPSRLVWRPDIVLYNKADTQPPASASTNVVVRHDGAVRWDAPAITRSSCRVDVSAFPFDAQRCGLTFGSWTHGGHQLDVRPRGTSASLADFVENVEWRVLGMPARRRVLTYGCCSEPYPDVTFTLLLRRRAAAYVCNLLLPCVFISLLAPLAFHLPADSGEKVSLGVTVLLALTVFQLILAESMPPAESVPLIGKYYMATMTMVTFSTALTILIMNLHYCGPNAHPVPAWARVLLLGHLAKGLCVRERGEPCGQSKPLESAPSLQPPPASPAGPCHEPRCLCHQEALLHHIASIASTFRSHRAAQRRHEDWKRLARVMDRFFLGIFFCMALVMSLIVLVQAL
Chain of rat α4β4 nAChR (P09483 31-630 limits assumed): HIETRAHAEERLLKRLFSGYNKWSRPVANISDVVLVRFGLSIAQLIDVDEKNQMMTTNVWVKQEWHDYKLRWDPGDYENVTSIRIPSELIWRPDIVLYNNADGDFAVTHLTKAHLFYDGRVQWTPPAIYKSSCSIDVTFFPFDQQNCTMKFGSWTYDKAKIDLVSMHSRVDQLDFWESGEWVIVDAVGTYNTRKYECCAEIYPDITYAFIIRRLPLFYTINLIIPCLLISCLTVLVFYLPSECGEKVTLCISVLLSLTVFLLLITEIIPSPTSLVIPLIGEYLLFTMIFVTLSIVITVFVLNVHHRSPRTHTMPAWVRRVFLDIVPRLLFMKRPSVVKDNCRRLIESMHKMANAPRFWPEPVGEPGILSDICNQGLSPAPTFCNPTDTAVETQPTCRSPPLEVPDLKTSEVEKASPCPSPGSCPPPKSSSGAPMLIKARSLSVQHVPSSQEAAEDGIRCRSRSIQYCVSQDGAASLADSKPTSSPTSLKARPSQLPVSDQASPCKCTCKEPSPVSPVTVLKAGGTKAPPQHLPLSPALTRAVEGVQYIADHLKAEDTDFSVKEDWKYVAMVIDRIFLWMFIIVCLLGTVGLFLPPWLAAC
Chain of rat α4β4 nAChR (P12392 21-495 limits assumed): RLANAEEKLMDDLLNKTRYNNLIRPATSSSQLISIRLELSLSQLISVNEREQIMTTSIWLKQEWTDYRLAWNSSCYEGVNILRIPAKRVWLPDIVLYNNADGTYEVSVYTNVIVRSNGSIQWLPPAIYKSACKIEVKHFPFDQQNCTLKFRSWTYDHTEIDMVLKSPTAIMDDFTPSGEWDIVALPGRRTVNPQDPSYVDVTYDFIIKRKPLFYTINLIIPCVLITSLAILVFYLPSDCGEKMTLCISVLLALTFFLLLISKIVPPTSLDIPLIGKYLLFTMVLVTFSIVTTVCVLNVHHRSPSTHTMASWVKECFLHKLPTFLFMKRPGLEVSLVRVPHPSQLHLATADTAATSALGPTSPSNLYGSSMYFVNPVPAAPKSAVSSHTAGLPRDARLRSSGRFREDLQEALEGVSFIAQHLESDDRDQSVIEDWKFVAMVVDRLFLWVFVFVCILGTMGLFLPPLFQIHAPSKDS
Chain of rat α4β2 nAChR (P09483 31-630 limits assumed): as the sequence (P09483 31-630 limits assumed) above
Chain of rat α4β2 nAChR (P12390 25-500 limits assumed): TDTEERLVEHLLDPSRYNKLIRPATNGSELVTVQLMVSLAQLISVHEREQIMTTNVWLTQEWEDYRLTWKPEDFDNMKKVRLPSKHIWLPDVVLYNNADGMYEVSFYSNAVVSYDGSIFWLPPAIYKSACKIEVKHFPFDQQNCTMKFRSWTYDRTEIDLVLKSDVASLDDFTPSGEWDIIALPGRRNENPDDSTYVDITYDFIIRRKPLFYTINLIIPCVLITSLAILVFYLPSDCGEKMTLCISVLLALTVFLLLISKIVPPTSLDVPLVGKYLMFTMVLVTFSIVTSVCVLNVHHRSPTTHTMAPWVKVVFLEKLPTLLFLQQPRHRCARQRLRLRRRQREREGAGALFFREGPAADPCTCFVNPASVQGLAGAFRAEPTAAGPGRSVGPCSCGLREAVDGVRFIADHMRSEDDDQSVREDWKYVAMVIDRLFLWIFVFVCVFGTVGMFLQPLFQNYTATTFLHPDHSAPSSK
Chain of rat α2β4 nAChR (P12389 28-511 limits assumed): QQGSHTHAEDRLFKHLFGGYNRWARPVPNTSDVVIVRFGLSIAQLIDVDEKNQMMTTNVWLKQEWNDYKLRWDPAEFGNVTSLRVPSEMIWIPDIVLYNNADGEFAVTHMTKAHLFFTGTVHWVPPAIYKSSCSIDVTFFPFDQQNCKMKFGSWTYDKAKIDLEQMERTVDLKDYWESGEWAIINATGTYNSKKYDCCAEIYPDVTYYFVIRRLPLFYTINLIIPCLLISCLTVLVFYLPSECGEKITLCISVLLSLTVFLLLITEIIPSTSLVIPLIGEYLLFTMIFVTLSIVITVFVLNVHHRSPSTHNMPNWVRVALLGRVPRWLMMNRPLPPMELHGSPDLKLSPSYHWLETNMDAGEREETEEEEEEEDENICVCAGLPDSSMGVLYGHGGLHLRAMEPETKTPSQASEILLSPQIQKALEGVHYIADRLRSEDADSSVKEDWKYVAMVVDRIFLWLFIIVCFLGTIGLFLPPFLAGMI
Chain of rat α2β4 nAChR (P12392 21-495 limits assumed): as the sequence (P12392 21-495 limits assumed) above

Row | Structure (SMILES) | activity at a concentration of 10 μM [1] | activity against rat α4β2 nAChR [2] | activity against rat α2β4 nAChR [3] | activity against rat α3β2 nAChR [4] | activity against rat α4β4 nAChR [5] | inhibition at 10 µM [6] [%] | activity against rat α6/α3β4 nAChR [7] | inhibition at 0.1 µM [1] [%] | other results
1 | N=C(N)NCCC[C@H](NC(=O)[C@@H]1CSSC[C@@H]2NC(=O)[C@@H](NC(=O)CN)CSSC[C@H](NC(=O)[C@H](CCCNC(=N)N)NC(=O)[C@@H]3CCCN3C(=O)[C@@H](CC(=O)O)NC(=O)[C@H](CO)NC2=O)C(=O)N[C@@H](CCCNC(=N)N)C(=O)N[C@@H](Cc2ccc(O)cc2)C(=O)N[C@@H](CCCNC(=N)N)C(=O)N1)C(=O)O [Compound 5] | not active |  |  |  |  |  |  |  | 
2 | N=C(N)NCCC[C@@H](NC(=O)[C@@H]1CSSC[C@@H]2NC(=O)[C@@H](NC(=O)CN)CSSC[C@H](NC(=O)[C@@H](CCCNC(=N)N)NC(=O)[C@@H]3CCCN3C(=O)[C@H](CC(=O)O)NC(=O)[C@H](CO)NC2=O)C(=O)N[C@H](CCCNC(=N)N)C(=O)N[C@@H](Cc2ccc(O)cc2)C(=O)N[C@H](CCCNC(=N)N)C(=O)N1)C(=O)O [Compound 14] |  | inactive | inactive | inactive | inactive | 70 to 90 | inactive |  | inhibition of ACh-evoked current amplitude [1]: did not inhibit
3 | N=C(N)NCCC[C@H](NC(=O)[C@@H]1CSSC[C@@H]2NC(=O)[C@@H](NC(=O)CN)CSSC[C@H](NC(=O)[C@H](CCCNC(=N)N)NC(=O)[C@@H]3CCCN3C(=O)[C@H](CC(=O)O)NC(=O)[C@H](CO)NC2=O)C(=O)N[C@@H](CCCNC(=N)N)C(=O)N[C@@H](Cc2ccc(O)cc2)C(=O)N[C@H](CCCNC(=N)N)C(=O)N1)C(=O)O [Compound 11] | not active |  |  |  |  |  |  |  | 
4 | N=C(N)NCCC[C@H](NC(=O)[C@@H]1CSSC[C@@H]2NC(=O)[C@@H](NC(=O)CN)CSSC[C@H](NC(=O)[C@@H](CCCNC(=N)N)NC(=O)[C@@H]3CCCN3C(=O)[C@H](CC(=O)O)NC(=O)[C@H](CO)NC2=O)C(=O)N[C@@H](CCCNC(=N)N)C(=O)N[C@@H](Cc2ccc(O)cc2)C(=O)N[C@@H](CCCNC(=N)N)C(=O)N1)C(=O)O [Compound 7] | not active |  |  |  |  |  |  |  | 
5 | N=C(N)NCCC[C@H]1NC(=O)[C@H](Cc2ccc(O)cc2)NC(=O)[C@@H](CCCNC(=N)N)NC(=O)[C@@H]2CSSC[C@H](NC(=O)CN)C(=O)N[C@@H](CSSC[C@@H](C(N)=O)NC1=O)C(=O)N[C@@H](CO)C(=O)N[C@@H](CC(=O)O)C(=O)N1CCC[C@H]1C(=O)N[C@H](CCCNC(=N)N)C(=O)N2 [Compound 15] (H-GCCSDP[dR]C[dR]Y[dR]C-NH2; disulfide 2-8, 3-12) |  | inactive | inactive | inactive | inactive | 70 to 90 | inactive |  | IC50 [6]: 680 nM; IC50 [1]: 288 nM; inhibition of ACh-evoked current amplitude [1]: did not inhibit
6 | C[C@@H](N)C(=O)N[C@H]1CSSC[C@@H]2NC(=O)[C@H](CCCNC(=N)N)NC(=O)[C@@H]3CCCN3C(=O)[C@H](CC(=O)O)NC(=O)[C@H](CO)NC(=O)[C@H](CSSC[C@@H](C(=O)N[C@@H](CCCNC(=N)N)C(=O)O)NC(=O)[C@H](CCCNC(=N)N)NC(=O)[C@H](Cc3ccc(O)cc3)NC(=O)[C@H](CCCNC(=N)N)NC2=O)NC1=O [Compound 1] (H-[dA]CCSDPRCRYRCR-OH; disulfide 2-8, 3-12) |  |  |  |  |  |  |  | 70.6 ± 2 | IC50 [6]: > 10000 nM; IC50 [1]: 41.1 nM
7 | N=C(N)NCCC[C@H](NC(=O)[C@@H]1CSSC[C@H]2NC(=O)[C@@H](NC(=O)CN)CSSC[C@H](NC(=O)[C@H](CCCNC(=N)N)NC(=O)[C@@H]3CCCN3C(=O)[C@H](CC(=O)O)NC(=O)[C@H](CO)NC2=O)C(=O)N[C@@H](CCCNC(=N)N)C(=O)N[C@@H](Cc2ccc(O)cc2)C(=O)N[C@@H](CCCNC(=N)N)C(=O)N1)C(=O)O [Compound 3] |  |  |  |  |  |  |  | 78.7 ± 2 | 
8 | N=C(N)NCCC[C@@H]1NC(=O)[C@@H]2CSSC[C@H](NC(=O)CN)C(=O)N[C@@H](CSSC[C@@H](C(=O)N[C@H](CCCNC(=N)N)C(=O)O)NC(=O)[C@H](CCCNC(=N)N)NC(=O)[C@H](Cc3ccc(O)cc3)NC1=O)C(=O)N[C@@H](CO)C(=O)N[C@@H](CC(=O)O)C(=O)N1CCC[C@H]1C(=O)N[C@@H](CCCNC(=N)N)C(=O)N2 [Compound 13] |  | inactive | inactive | inactive | inactive | 70 to 90 | inactive | 97.2 ± 0.05 | 
9 | N=C(N)NCCC[C@H](NC(=O)[C@@H]1CSSC[C@@H]2NC(=O)[C@@H](NC(=O)CN)CSSC[C@H](NC(=O)[C@H](CCCNC(=N)N)NC(=O)[C@H]3CCCN3C(=O)[C@H](CC(=O)O)NC(=O)[C@H](CO)NC2=O)C(=O)N[C@@H](CCCNC(=N)N)C(=O)N[C@@H](Cc2ccc(O)cc2)C(=O)N[C@@H](CCCNC(=N)N)C(=O)N1)C(=O)O [Compound 6] | not active |  |  |  |  |  |  |  | 
10 | N=C(N)NCCC[C@H](NC(=O)[C@@H]1CSSC[C@@H]2NC(=O)[C@@H](NC(=O)CN)CSSC[C@H](NC(=O)[C@H](CCCNC(=N)N)NC(=O)[C@@H]3CCCN3C(=O)[C@H](CC(=O)O)NC(=O)[C@@H](CO)NC2=O)C(=O)N[C@@H](CCCNC(=N)N)C(=O)N[C@@H](Cc2ccc(O)cc2)C(=O)N[C@@H](CCCNC(=N)N)C(=O)N1)C(=O)O [Compound 4] | not active |  |  |  |  |  |  |  | 

Reference: paper PMC6472032 (Marine Drugs, 2019)
